{"source": "patent US9339458B2", "about": "“Use of vaginal insulin sensitizing agents” (ITF RESEARCH PHARMA, S.L.U., priority 2009, dated 2016)", "key": {"[1]": {"test_system": "non-insulin dependent model for polycystic ovary syndrome (PCOS) induced by dehydroepiandrosterone (DHEA) in rats", "experiment": "Concentration of testosterone in plasma, DHEA-induced PCOS model in rats", "type": "in vivo, Sprague-Dawley rats", "procedure": "(§1) The study objective was to assess the effect of metformin in a non-insulin dependent model for polycystic ovary syndrome (PCOS) induced by dehydroepiandrosterone (DHEA) in rats.\n(§2) The formulations to be tested were: • Gels with Metformin at a concentration of 2 mg/mL (FT-147), 20 mg/mL (FT-148) and 200 mg/mL (FT-149). • Gel without Metformin (Placebo; FT-150).\n(§3) Female 2-3 weeks-old Sprague-Dawley rats were used.\n(§4) Four experimental groups with 8 animals each were used in the study: • Group A: Control=Placebo+DHEA • Group B: Dose 1 Trial Substance (0.016 mg/animal)+DHEA • Group C: Dose 2 Trial Substance (0.16 mg/animal)+DHEA • Group D: Dose 3 Trial Substance (1.6 mg/animal)+DHEA\nEach animal's dose was calculated based on the concentration of each formulation and the administration volume: • Dose 1: formulation of 2 mg/mL with administration of 8 μl/animal=0.016 mg/animal • Dose 2: formulation of 20 mg/mL with administration of 8 μl/animal=0.16 mg/animal • Dose 3: formulation of 200 mg/mL with administration of 8 μl/animal=1.6 mg/animal […]\nPlasma was obtained from each blood sample by centrifugation at 5000 g for 5 minutes, which was frozen for later assessment (quantitative determinations) of testosterone levels by rat-specific commercial immunoassay kits (EIA).\nTestosterone concentrations in the plasma samples from all animals were determined at the end of the study (Day 15)."}, "[2]": {"test_system": "non-insulin dependent model for polycystic ovary syndrome (PCOS) induced by dehydroepiandrosterone (DHEA) in rats", "experiment": "Histological assessment of ovaries (no. of atretic follicles), DHEA-induced PCOS model in rats", "type": "in vivo, Sprague-Dawley rats", "procedure": "as §1, §2, §3, §4\nEach animal's dose was calculated based on the concentration of each formulation and the administration volume: • Dose 1: formulation of 2 mg/mL with administration of 8 μl/animal=0.016 mg/animal • Dose 2: formulation of 20 mg/mL with administration of 8 μl/animal=0.16 mg/animal • Dose 3: formulation of 200 mg/mL with administration of 8 μl/animal=1.6 mg/animal\nThe trial substance (doses of 0.016, 0.16 and 1.6 mg/animal) and the control substance were administered intravaginally as an aqueous gel at a volume of 8 μl/animal.\nThe DHEA solution was prepared in a sesame seed oil prior to administration and was injected subcutaneously in a skin fold in the posterior thoracic area (dorsal) at a volume of 0.2 mL. […]"}}}
{"smiles": "CN(C)C(=N)NC(=N)N", "note": "[metformin, N,N-dimethylimidodicarbonimidic diamide]", "values": [{"measurement": "Testosterone plasma levels versus control group", "setting": "[1]; high dose, intravaginal", "value": "very significant reduction"}, {"measurement": "Plasma levels of testosterone", "setting": "[1]; vaginal administration", "value": "significantly decreases"}, {"measurement": "Number of atretic follicles versus control group", "setting": "[2]; intermediate dose, intravaginal", "value": "significant reduction"}, {"measurement": "Number of atretic follicles in the polycystic ovaries", "setting": "[2]; vaginal administration", "value": "a decrease"}]}
